According to publication PMC2962730 (Journal of neurochemistry, 2010):
Positions count from the first letter of the chain named. Entries after “also recorded” stand apart in the source; their conditions may differ.

Legend:
[1] = target: T1, hVAChT M316A (Homo sapiens, UniProt Q16572, M316A); assay: ACh equilibrium binding by competition against [3H]vesamicol
T1 sequence (Q16572 1-532 M316A): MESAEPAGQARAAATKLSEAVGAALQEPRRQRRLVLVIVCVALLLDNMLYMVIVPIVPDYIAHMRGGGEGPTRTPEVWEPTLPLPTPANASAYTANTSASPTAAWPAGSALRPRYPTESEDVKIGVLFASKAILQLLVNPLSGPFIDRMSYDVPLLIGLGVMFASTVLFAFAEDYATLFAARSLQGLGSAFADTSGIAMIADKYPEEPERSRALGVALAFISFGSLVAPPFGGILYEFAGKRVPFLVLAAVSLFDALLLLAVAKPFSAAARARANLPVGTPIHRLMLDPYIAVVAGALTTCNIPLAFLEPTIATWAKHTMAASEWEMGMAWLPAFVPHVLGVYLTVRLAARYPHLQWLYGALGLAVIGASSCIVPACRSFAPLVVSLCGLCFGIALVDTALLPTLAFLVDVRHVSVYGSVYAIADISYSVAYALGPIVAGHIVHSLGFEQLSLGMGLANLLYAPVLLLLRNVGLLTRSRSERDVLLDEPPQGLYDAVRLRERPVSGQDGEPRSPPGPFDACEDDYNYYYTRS

[2] = target: T2, hVAChT K317A (Homo sapiens, UniProt Q16572, K317A); assay: as above
T2 sequence (Q16572 1-532 K317A): T1 sequence (Q16572 1-532 M316A) with A316M, K317A

[3] = target: T3, hVAChT W315A (Homo sapiens, UniProt Q16572, W315A); assay: [3H]vesamicol saturation binding; details: pH 7.4
T3 sequence (Q16572 1-532 W315A): T1 sequence (Q16572 1-532 M316A) with W315A, A316M

[4] = target: T4, hVAChT A330V (Homo sapiens, UniProt Q16572, A330V); assay: [3H]vesamicol saturation binding; details: pH 7.4
T4 sequence (Q16572 1-532 A330V): T1 sequence (Q16572 1-532 M316A) with A316M, A330V

[5] = target: T5, hVAChT C391A (Homo sapiens, UniProt Q16572, C391A); assay: [3H]vesamicol saturation binding; details: pH 7.4
T5 sequence (Q16572 1-532 C391A): T1 sequence (Q16572 1-532 M316A) with A316M, C391A

[6] = tested on: rat VAChT (rVAChT) W331 mutants; details: mutations of W331 in rVAChT; ref Ojeda et al. 2004; cited from earlier work

| SMILES | Kd [1] [mM] | FHA, fraction of the ACh sites that have high affinity ([1]; M316A hVAChT, pH 7.4) | Kd [2] [mM] | FHA, fraction of the ACh sites that have high affinity ([2]; K317A hVAChT, pH 7.4) | Bmax, maximal specific [3H]vesamicol binding (VAChT expression level) [3] [pmol/mg] | Bmax, maximal specific [3H]vesamicol binding (VAChT expression level) [4] [pmol/mg] | Bmax, maximal specific [3H]vesamicol binding (VAChT expression level) [5] [pmol/mg] | effect on vesamicol affinity [6] |
| --- | --- | --- | --- | --- | --- | --- | --- | --- |
| CC(=O)OCC[N+](C)(C)C [ACh, acetylcholine] | 8.3 ± 0.7 | 0.74 ± 0.03 | 6.9 ± 1.2 | 0.72 ± 0.06 |  |  |  |  |
| O[C@@H]1CCCC[C@H]1N1CCC(c2ccccc2)CC1 (racemic) [vesamicol, ( )-trans-2-(4-phenylpiperidino)cyclohexanol] |  |  |  |  | 26 ± 1 | 21 ± 0 | 34 ± 3 | no loss in affinity for vesamicol; also recorded: without affecting vesamicol affinity |
